Legend:
[1] = target: ErbB2 with Exon 20 YVMA insertion (HER2-YVMA) (Homo sapiens (Human), UniProt P04626, INS775YVMA); assay: Cellular Phosphorylation Assay, Assay 4 (constitutive ErbB2 phosphorylation, NIH 3T3 cells); type: cell-based
ErbB2 WT = ErbB2 WT (Homo sapiens (Human), UniProt P04626); assay: ErbB Enzyme Assay (HTRF KinEASE-TK), Assay 2; type: biochemical
EGFR = EGFR (Homo sapiens (Human), UniProt P00533); assay: ErbB Enzyme Assay (HTRF KinEASE-TK), Assay 3; type: biochemical
BCRP = BCRP (Homo sapiens (Human), UniProt Q9UNQ0); assay: BCRP MDCKII efflux assay (Assay 7); type: in vitro ADME; settings: dog; efflux ratio Papp(B-A)/Papp(A-B), BCRP MDCKII cells; read-out: Assay 7 Pe Ratio
Description: Assay conditions included with and without the BCRP-specific inhibitor, KO143, at a concentration of 0.3 μM to ascertain the contribution of BCRP to the efflux value of the test compound.
Final organic concentration in the assay was 1%.

EGFR wild type (EGFR WT) = EGFR wild type (EGFR WT) (Homo sapiens (Human), UniProt P00533); assay: Cellular Phosphorylation Assay, Assay 5 (EGF-stimulated EGFR phosphorylation, NIH 3T3 cells); type: cell-based
Chain of EGFR wild type (EGFR WT) (P00533 25-1210): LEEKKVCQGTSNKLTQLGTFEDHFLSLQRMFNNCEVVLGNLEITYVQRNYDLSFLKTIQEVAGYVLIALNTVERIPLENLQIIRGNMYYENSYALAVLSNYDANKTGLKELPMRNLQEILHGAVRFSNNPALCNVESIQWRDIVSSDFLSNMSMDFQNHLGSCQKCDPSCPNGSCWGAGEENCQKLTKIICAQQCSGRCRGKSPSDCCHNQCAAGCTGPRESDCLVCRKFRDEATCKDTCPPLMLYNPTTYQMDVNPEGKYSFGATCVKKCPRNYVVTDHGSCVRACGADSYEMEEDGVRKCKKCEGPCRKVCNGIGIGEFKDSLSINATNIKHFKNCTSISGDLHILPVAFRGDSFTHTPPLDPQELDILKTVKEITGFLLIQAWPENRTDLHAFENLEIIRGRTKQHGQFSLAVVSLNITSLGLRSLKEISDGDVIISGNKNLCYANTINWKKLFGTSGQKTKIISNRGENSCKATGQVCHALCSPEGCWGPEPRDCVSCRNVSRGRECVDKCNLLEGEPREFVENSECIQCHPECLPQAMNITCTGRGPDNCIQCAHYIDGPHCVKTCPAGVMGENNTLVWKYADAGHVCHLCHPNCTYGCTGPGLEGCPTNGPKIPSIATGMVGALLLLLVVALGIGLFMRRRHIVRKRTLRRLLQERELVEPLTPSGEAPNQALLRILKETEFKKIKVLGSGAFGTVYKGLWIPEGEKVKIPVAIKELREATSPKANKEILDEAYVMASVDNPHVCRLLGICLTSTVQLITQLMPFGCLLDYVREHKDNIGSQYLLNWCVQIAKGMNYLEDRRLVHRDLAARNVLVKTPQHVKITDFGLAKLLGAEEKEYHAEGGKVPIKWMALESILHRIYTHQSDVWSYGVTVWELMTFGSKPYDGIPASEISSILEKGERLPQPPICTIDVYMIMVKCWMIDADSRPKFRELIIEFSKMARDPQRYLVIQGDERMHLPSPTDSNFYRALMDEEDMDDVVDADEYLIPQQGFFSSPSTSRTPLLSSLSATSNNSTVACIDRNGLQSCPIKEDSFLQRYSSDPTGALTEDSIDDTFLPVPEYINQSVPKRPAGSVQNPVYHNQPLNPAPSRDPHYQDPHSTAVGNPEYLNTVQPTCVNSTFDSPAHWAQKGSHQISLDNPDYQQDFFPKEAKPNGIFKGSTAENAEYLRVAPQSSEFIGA

[2] = EGF-stimulated EGFR WT phosphorylation
[3] = cellular ErbB2 YVMA phosphorylation
[4] = cellular EGFR WT phosphorylation, EGF-stimulated

Chain of EGFR (P00533 25-1210): as above
Chain of ErbB2 WT (P04626 23-1255): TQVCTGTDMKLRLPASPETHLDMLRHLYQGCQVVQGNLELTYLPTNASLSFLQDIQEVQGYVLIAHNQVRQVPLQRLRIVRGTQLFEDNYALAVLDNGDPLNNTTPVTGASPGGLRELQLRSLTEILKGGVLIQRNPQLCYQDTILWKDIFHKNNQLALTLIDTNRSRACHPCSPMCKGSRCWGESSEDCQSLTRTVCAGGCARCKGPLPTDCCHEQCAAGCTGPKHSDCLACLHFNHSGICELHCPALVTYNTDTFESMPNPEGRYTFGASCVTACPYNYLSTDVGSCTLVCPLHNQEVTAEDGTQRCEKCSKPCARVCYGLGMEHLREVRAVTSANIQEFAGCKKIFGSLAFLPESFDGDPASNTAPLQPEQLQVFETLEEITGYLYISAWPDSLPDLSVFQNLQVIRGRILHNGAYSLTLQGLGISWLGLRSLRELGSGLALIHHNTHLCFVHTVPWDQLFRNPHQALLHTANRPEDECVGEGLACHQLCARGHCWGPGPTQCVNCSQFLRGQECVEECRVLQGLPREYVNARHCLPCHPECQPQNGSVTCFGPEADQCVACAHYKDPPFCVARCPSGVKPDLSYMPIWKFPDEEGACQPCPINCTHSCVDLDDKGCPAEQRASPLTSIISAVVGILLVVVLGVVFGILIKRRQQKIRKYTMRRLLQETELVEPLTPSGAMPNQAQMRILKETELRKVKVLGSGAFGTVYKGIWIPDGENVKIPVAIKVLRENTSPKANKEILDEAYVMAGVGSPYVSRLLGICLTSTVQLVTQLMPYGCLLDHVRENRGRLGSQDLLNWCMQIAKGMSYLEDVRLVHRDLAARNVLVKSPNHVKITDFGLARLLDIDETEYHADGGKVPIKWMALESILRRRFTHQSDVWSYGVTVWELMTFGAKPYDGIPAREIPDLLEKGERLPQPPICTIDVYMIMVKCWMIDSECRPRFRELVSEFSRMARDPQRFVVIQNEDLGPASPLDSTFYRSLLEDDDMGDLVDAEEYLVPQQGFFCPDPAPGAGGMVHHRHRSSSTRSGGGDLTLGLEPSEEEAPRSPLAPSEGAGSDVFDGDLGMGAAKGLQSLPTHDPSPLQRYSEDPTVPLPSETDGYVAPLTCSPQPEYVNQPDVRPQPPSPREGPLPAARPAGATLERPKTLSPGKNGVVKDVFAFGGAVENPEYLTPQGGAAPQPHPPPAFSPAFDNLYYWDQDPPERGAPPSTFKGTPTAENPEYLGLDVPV
Chain of ErbB2 with Exon 20 YVMA insertion (HER2-YVMA) (P04626 other isoform, or with tags, fused parts or gaps ins YVMA behind 775): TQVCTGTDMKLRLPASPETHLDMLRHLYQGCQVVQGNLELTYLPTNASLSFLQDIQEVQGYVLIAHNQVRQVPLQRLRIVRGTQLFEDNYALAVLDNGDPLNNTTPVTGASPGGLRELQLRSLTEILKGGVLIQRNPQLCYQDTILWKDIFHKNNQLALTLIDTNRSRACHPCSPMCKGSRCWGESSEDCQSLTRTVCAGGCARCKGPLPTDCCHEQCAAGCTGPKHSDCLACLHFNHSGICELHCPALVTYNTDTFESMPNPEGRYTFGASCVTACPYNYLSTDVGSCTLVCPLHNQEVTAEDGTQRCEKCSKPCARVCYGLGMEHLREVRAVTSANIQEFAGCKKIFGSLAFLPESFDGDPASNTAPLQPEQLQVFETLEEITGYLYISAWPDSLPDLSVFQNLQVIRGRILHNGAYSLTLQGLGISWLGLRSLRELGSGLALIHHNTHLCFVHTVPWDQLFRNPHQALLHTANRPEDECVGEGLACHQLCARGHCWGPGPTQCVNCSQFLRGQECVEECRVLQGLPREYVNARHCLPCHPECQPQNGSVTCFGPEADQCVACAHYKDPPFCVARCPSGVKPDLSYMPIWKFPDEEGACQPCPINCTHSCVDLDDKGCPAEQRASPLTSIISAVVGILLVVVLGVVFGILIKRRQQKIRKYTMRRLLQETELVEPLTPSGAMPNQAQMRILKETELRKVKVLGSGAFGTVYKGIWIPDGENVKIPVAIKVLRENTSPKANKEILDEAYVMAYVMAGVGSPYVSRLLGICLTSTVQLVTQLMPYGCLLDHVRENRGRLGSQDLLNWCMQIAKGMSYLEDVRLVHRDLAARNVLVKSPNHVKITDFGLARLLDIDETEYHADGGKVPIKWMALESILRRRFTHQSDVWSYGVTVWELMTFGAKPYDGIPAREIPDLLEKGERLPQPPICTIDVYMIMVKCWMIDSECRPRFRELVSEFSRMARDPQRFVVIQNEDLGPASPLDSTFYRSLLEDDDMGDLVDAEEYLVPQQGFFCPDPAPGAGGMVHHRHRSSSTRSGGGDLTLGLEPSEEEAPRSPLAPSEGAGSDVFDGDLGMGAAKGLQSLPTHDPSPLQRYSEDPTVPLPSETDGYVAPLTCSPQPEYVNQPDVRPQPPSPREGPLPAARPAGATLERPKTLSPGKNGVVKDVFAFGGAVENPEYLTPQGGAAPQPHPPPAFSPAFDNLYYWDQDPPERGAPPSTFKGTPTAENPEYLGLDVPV

| efflux ratio at 2 h, 1 µM (BCRP) | IC50 [1, 3] [nM] | IC50 (ErbB2 WT; ErbB2 WT enzyme assay) [nM] | IC50 (EGFR; EGFR enzyme assay) [nM] | IC50 (EGFR wild type (EGFR WT); [4]) [nM] | SMILES | IC50 ([1]; ErbB2 YVMA phosphorylation) [nM] | IC50 (ErbB2 WT; ErbB2 WT enzyme) [nM] | IC50 (EGFR; EGFR enzyme) [nM] | IC50 (EGFR wild type (EGFR WT); [2]) [nM] |
| --- | --- | --- | --- | --- | --- | --- | --- | --- | --- |
| 6.8 | – | – | – | – | C=CC(=O)N1C[C@H]2CC[C@@H]1CN2c1ccc2ncnc(Nc3ccc(Oc4cnc5c(c4)ncn5C)c(C)c3F)c2n1 [Example 236, 1-((1R,4R)-5-(4-((2-fluoro-3-methyl-4-((3-methyl-3H-imidazo[4,5-b]pyridin-6-yl)oxy)phenyl)amino)pyrido[3,2-d]pyrimidin-6-yl)-2,5-diazabicyclo[2.2.2]octan-2-yl)prop-2-en-1-one] | 24.6 | 1170 | ≥ 10000 | ≥ 5000 |
| 15.2 | – | – | – | – | C=CC(=O)N1C[C@@H]2C[C@H]1CN(c1ccc3ncnc(Nc4cc(Cl)c(Oc5ccc6c(c5)ncn6C)cc4F)c3n1)C2 [Example 248] | 14.4 | 108 | ≥ 10000 | ≥ 5000 |
| 1.7 | 29.8 | 45.8 | 8970 | 1070 | C=CC(=O)N1CCN(c2ccc3ncnc(Nc4ccc(Oc5ccn6ncnc6c5)c(C)c4F)c3n2)C[C@H]1C(C)C [Example 267] | – | – | – | – |
| 11.8 | 33.8 | 156 | 4780 | ≥ 5000 | C=CC(=O)N1C[C@@H]2CC(c3ccc4ncnc(Nc5ccc(Oc6ccn7ncnc7c6)c(C)c5F)c4n3)C[C@H]1C2 (stereo partly shown) [Example 268] | – | – | – | – |
| 37 | 31.6 | 51.9 | 3450 | ≥ 5000 | C=CC(=O)N1CCC(c2ccc3ncnc(Nc4ccc(Oc5cnc6c(c5)ncn6C)c(Cl)c4)c3n2)CC1 [Example 271] | – | – | – | – |
| 15.3 | 25.7 | 76.3 | 5640 | ≥ 5000 | C=CC(=O)N1CCC(c2ccc3ncnc(Nc4ccc(Oc5cnc6c(c5)ncn6C)c(C)c4)c3n2)CC1 [Example 273] | – | – | – | – |
| 25.2 | 6.7 | 10 | 350 | 302 | C=CC(=O)N1CCN(c2ccc3ncnc(Nc4ccc(Oc5cc(F)c6c(c5)ncn6C)c(C)c4)c3n2)CC1 [Example 276] | – | – | – | – |
| 7.3 | 12.5 | 23.7 | 992 | 975 | C=CC(=O)N1CCN(c2ccc3ncnc(Nc4ccc(Oc5cc(F)c6c(c5)ncn6C)c(C)c4)c3n2)CC1(C)C [Example 277] | – | – | – | – |
| 8.7 | 21.1 | 50.4 | 2090 | 1890 | C=CC(=O)N1CC(c2ccc3ncnc(Nc4ccc(Oc5ccn6ncnc6c5)c(C)c4F)c3n2)C1 [Example 280] | – | – | – | – |
| 7.6 | 14.4 | 12.9 | 2350 | 1230 | C=CC(=O)N1CCN(c2ccc3ncnc(Nc4ccc(Oc5cc(F)c6c(c5)ncn6C)c(C)c4)c3n2)C[C@H]1CC [Example 282] | – | – | – | – |
| 4.4 | 10.5 | 11 | 1340 | 778 | C=CC(=O)N1[C@H](C)CN(c2ccc3ncnc(Nc4ccc(Oc5ccn6ncnc6c5)c(Cl)c4F)c3n2)C[C@@H]1C [Example 288] | – | – | – | – |
| 26 | 53.7 | 22.4 | 2870 | ≥ 5000 | C=CC(=O)N1CC2(CCN2c2ccc3ncnc(Nc4ccc(Oc5ccn6ncnc6c5)c(C)c4F)c3n2)C1 [Example 289] | – | – | – | – |
| 15.6 | 71 | 75.5 | ≥ 10000 | ≥ 5000 | C=CC(=O)N1C[C@H]2C[C@@H]1CN(c1ccc3ncnc(Nc4cc(Cl)c(Oc5ccn6ncnc6c5)cc4F)c3n1)C2 [Example 292] | – | – | – | – |
| 7.2 | 22.2 | 1170 | ≥ 10000 | ≥ 5000 | C=CC(=O)N1C[C@H]2C[C@@H]1CN(c1ccc3ncnc(Nc4cc(Cl)c(Oc5cnc6c(c5)ncn6C)cc4F)c3n1)C2 [Example 294] | – | – | – | – |
| 13.8 | 11.6 | 16.9 | 757 | 1670 | C=CC(=O)N1C[C@H]2C[C@@H]1CN(c1ccc3ncnc(Nc4ccc(Oc5ccn6ncnc6c5)c(Cl)c4F)c3n1)C2 [Example 304] | – | – | – | – |
| 12.8 | 29.8 | 47.3 | 1380 | 2050 | C=CC(=O)N1C[C@@H]2CN(c3ccc4ncnc(Nc5ccc(Oc6ccn7ncnc7c6)c(C)c5F)c4n3)C[C@@H]21 [Example 318] | – | – | – | – |
| 11.3 | 15.3 | 8.1 | 489 | 431 | C#CC1CN(c2ccc3ncnc(Nc4ccc(Oc5ccn6ncnc6c5)c(C)c4F)c3n2)CCN1C(=O)C=C (stereo not shown) [Example 322] | – | – | – | – |
| 6.7 | 23.8 | 36.4 | ≥ 10000 | ≥ 5000 | C=CC(=O)N1C[C@@H]2CN(c3ccc4ncnc(Nc5ccc(Oc6ccc7c(c6)ncn7C)c(C)c5F)c4n3)C[C@@H]21 [Example 323] | – | – | – | – |
| 7.7 | 15.7 | 50 | 692 | 1500 | C=CC(=O)N1C[C@H]2CC[C@@H]1CN2c1ccc2ncnc(Nc3ccc(Oc4ccn5ncnc5c4)c(Cl)c3F)c2n1 [Example 328] | – | – | – | – |
| 8.9 | 19.6 | 19.5 | 881 | 2020 | C=CC(=O)N1CCN(c2ccc3ncnc(Nc4cc(C)c(Oc5ccc6c(c5)ncn6C)cc4F)c3n2)CC12CC2 [Example 340] | – | – | – | – |
| 14.2 | 15.4 | 14.3 | 1370 | 1440 | C=CC(=O)N1CCN(c2ccc3ncnc(Nc4cc(Cl)c(Oc5ccn6ncnc6c5)cc4F)c3n2)C[C@@H]1COC [Example 346] | – | – | – | – |
| 6.4 | 31 | 66.4 | 2860 | ≥ 5000 | C=CC(=O)N(C)[C@H]1CCN(c2ccc3ncnc(Nc4cc(C)c(Oc5ccn6ncnc6c5)cc4F)c3n2)C1 [Example 351] | – | – | – | – |
| 17.2 | 49.5 | 474 | ≥ 10000 | ≥ 5000 | C=CC(=O)N1C[C@H]2C[C@@H]1CN(c1ccc3ncnc(Nc4cc(C)c(Oc5cnc6c(c5)ncn6C)cc4F)c3n1)C2 [Example 353] | – | – | – | – |
| 13.4 | 8.8 | 31.6 | ≥ 10000 | ≥ 5000 | C=CC(=O)N1CCN(c2ccc3ncnc(Nc4cc(C)c(Oc5cnc6c(c5)ncn6C)cc4F)c3n2)CC12CC2 [Example 354] | – | – | – | – |
| 8.5 | 2.9 | 10 | 237 | 83.2 | C=CC(=O)N1CCN(c2ccc3ncnc(Nc4ccc(Oc5ccn6ncnc6c5)c(C)c4F)c3n2)C[C@H]1COC [Example 358] | – | – | – | – |
| 14.4 | 21 | 47.2 | 3370 | ≥ 5000 | C=CC(=O)N1[C@H](C)CN(c2ccc3ncnc(Nc4ccc(Oc5cc(F)c6c(c5)ncn6C)c(C)c4)c3n2)C[C@@H]1C [Example 359] | – | – | – | – |
| 7.4 | 5.5 | 9.7 | 1080 | 818 | C=CC(=O)N1CCN(c2ccc3ncnc(Nc4ccc(Oc5ccn6ncnc6c5)c(C)c4F)c3n2)C[C@@H]1COC [Example 362] | – | – | – | – |
| 3.4 | 20.5 | 16.5 | 2660 | ≥ 5000 | C=CC(=O)N1C[C@H]2C[C@@H]1[C@H](c1ccc3ncnc(Nc4cc(C)c(Oc5ccc6c(c5)ncn6C)cc4F)c3n1)C2 [Example 374] | – | – | – | – |

| SMILES | efflux ratio at 2 h, 1 µM (BCRP) | IC50 [1, 3] [nM] | IC50 (ErbB2 WT; ErbB2 WT enzyme assay) [nM] | IC50 (EGFR; EGFR enzyme assay) [nM] | IC50 (EGFR wild type (EGFR WT); [4]) [nM] | IC50 ([1]; ErbB2 YVMA phosphorylation) [nM] | IC50 (ErbB2 WT; ErbB2 WT enzyme) [nM] | IC50 (EGFR; EGFR enzyme) [nM] | IC50 (EGFR wild type (EGFR WT); [2]) [nM] |
| --- | --- | --- | --- | --- | --- | --- | --- | --- | --- |
| C=CC(=O)N1CC(c2ccc3ncnc(Nc4cc(C)c(Oc5ccc6c(c5)ncn6C)cc4F)c3n2)CCC12CC2 (stereo not shown) [Example 196, 1-(6-(4-((2-fluoro-5-methyl-4-((1-methyl-1H-benzo[d]imidazol-5-yl)oxy)phenyl)amino)pyrido[3,2-d]pyrimidin-6-yl)-4-azaspiro[2.5]octan-4-yl)prop-2-en-1-one] | 2.5 | – | – | – | – | 33.8 | 42.9 | 1160 | 2010 |
| C=CC(=O)N1[C@@H]2CC[C@H]1C[C@@H](c1ccc3ncnc(Nc4ccc(Oc5cnc6c(c5)ncn6C)c(C)c4)c3n1)C2 [Example 219, 1-((1R,3r,5S)-3-(4-((3-methyl-4-((3-methyl-3H-imidazo[4,5-b]pyridin-6-yl)oxy)phenyl)amino)pyrido[3,2-d]pyrimidin-6-yl)-8-azabicyclo[3.2.1]octan-8-yl)prop-2-en-1-one] | 9.3 | – | – | – | – | 20.1 | 111 | 3660 | ≥ 5000 |
| C=CC(=O)N1C2CC1CN(c1ccc3ncnc(Nc4ccc(Oc5ccc6c(c5)ncn6C)c(Cl)c4F)c3n1)C2 [Example 325] | 10.3 | 11.6 | 21.3 | 255 | 556 | – | – | – | – |
| C=CC(=O)N1CC2CC(C1)N2c1ccc2ncnc(Nc3ccc(Oc4ccc5c(c4)ncn5C)c(C)c3F)c2n1 [Example 335] | 3 | 15.4 | 164 | ≥ 10000 | ≥ 5000 | – | – | – | – |
